Values joined by “and” are separate entries in the source; they are usually repeats but may differ in a detail not shown here. Equal entries are not always repeated. Where two headings read alike, the source gives them in different places.
How the values were obtained:
[1] = target: T1, SdiA (Salmonella enterica subsp. enterica serovar Typhimurium, UniProt O66040); design: method as in PMID 17085703; conditions: racemates; cited from earlier work
[2] = target: T1, SdiA; assay: S. Typhimurium-pJNS25 SdiA reporter, competitive antagonism against 10 nM L-OOHL; type: cell-based; conditions: for inhibition at 1 µM: read-out: Antagonism 1 μM Inhibition (%); for inhibition at 100 µM: 100 μM compound, read-out: Antagonism 100 μM Inhibition (%); for Emax: maximal inhibition, 100% minus lowest % activity in presence of 10 nM L-OOHL (2), read-out: inhibition (%)
Outline: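 S. Typhimurium-pJNS25 (native SdiA, srgE promoter–luxCDABE) subcultured 1:100 in LB and incubated 6 h at 37 °C, 200 rpm, with compound (1% DMSO); antagonism run against 10 nM L-OOHL. Luminescence normalised between 10 μM OOHL and 1% DMSO controls; triplicates; four-parameter dose–response fits.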

[3] = system: S. Typhimurium-pJNS25; type: cell-based; conditions: 100 μM compound; footnote f: Cell growth inhibited at this compound concentration
Experimental: (§1) Salmonella SdiA reporter assay. S. Typhimurium-pJNS25 was grown 16–18 h overnight in LB, diluted 1:100 in fresh LB medium, and then incubated for 6 h at 37 °C with shaking at 200 rpm in the presence of compounds (1% DMSO). For antagonism assays, OOHL (2) at its EC90 (10 nM, 0.1% DMSO) was added to the subculture immediately prior to adding the compound for testing. All compounds were screened at 100 μM and 1 μM in triplicate in agonism and antagonism assays. Raw luminescence values were divided by the OD600 and then normalized to the controls; negative (DMSO) and positive (10 μM OOHL) control samples were included in every assay plate and used to normalize assay results, setting the positive control to 100% and the negative control to 0%. Luminescence was measured using a Biotek Synergy 2 plate reader and Gen 5 software (version 1.05). Dose–response analyses were performed by preparing dilutions of compounds in DMSO and testing each concentration in the agonism or antagonism assays. Competition dose–response assays (data in Figure 5) were performed in the same manner as the antagonism assays, except instead of OOHL being added to the subculture, the antagonist being tested was added. Non-linear regression curve fits were generated using GraphPad Prism software (version 6) using variable slope (four parameter) dose–response analysis.

[4] = target: T1, SdiA; assay: S. Typhimurium-pJNS25 SdiA reporter, agonism (luminescence); type: cell-based; conditions: for Emax: read-out: activation (%)
From the text: Biological assays for SdiA activity. Cell-based reporter strains that rely on detecting the transcriptional activity of LuxR-type receptors are commonly used to assess the activity of exogenous ligands. We used the S. Typhimurium-pJNS25 reporter strain constructed by Smith and Ahmer and also used by Janssens et al. to examine SdiA activity. This strain naturally produces SdiA and contains a reporter plasmid with the promoter region for srgE fused to the luxABCDE operon of V. fischeri (see Experimental section for details of all strains and plasmids). SdiA activity is thus reported by the production of luciferase and resulting bioluminescence. We also prepared an SdiA reporter in E. coli (JLD271-pJN105SE-pSC11SE) to examine S. Typhimurium SdiA activity in an alternate background and with a different reporter gene output. […] This reporter construct uses an arabinose inducible promoter to produce S. Typhimurium SdiA and the promoter region for srgE fused to lacZ to report SdiA activity. SdiA activity is then measured using standard β-galactosidase assays. In both reporter strains, signal was normalized to the difference between the positive control (10 μM OOHL) and the negative control (1% DMSO; no compound).
Salmonella SdiA reporter assay. S. Typhimurium-pJNS25 was grown 16–18 h overnight in LB, diluted 1:100 in fresh LB medium, and then incubated for 6 h at 37 °C with shaking at 200 rpm in the presence of compounds (1% DMSO). […] All compounds were screened at 100 μM and 1 μM in triplicate in agonism and antagonism assays. […] Dose–response analyses were performed by preparing dilutions of compounds in DMSO and testing each concentration in the agonism or antagonism assays. Competition dose–response assays (data in Figure 5) were performed in the same manner as the antagonism assays, except instead of OOHL being added to the subculture, the antagonist being tested was added. Non-linear regression curve fits were generated using GraphPad Prism software (version 6) using variable slope (four parameter) dose–response analysis.

[5] = target: T2, S. Typhimurium SdiA (Salmonella enterica subsp. enterica serovar Typhimurium, UniProt O66040); assay: E. coli JLD271-pJN105SE-pSC11SE SdiA reporter, antagonism (β-galactosidase); type: cell-based; conditions: for inhibition (%): E. coli reporter, against OOHL at its EC50 (1.5 nM), NA = not active
From the text: (§2) Biological assays for SdiA activity. Cell-based reporter strains that rely on detecting the transcriptional activity of LuxR-type receptors are commonly used to assess the activity of exogenous ligands. We used the S. Typhimurium-pJNS25 reporter strain constructed by Smith and Ahmer and also used by Janssens et al. to examine SdiA activity. This strain naturally produces SdiA and contains a reporter plasmid with the promoter region for srgE fused to the luxABCDE operon of V. fischeri (see Experimental section for details of all strains and plasmids). SdiA activity is thus reported by the production of luciferase and resulting bioluminescence. We also prepared an SdiA reporter in E. coli (JLD271-pJN105SE-pSC11SE) to examine S. Typhimurium SdiA activity in an alternate background and with a different reporter gene output. E. coli JLD271 is the sdiA mutant of K-12 E. coli. This reporter construct uses an arabinose inducible promoter to produce S. Typhimurium SdiA and the promoter region for srgE fused to lacZ to report SdiA activity. SdiA activity is then measured using standard β-galactosidase assays. In both reporter strains, signal was normalized to the difference between the positive control (10 μM OOHL) and the negative control (1% DMSO; no compound).
E. coli SdiA reporter assay. The β-galactosidase assay using the E. coli SdiA reporter was performed as reported previously, with minor modifications. The reporter strain was grown 16–18 h overnight in LB, diluted 1:10 in fresh LB medium, and incubated at 37 °C with shaking at 200 rpm until it reached an OD600 of 0.25. Expression of SdiA was induced by the addition of 4 mg/mL arabinose, and the culture was incubated in the presence of compounds (1% DMSO) for 4 h at 37 °C with shaking at 200 rpm. […] A 50 μL aliquot of culture from each well was lysed in 200 μL of Z-buffer and 8 μL of chloroform, and a 100 μL aliquot of this lysate was incubated with 25 μL of 4 mg/mL ONPG for 20 min at 30 °C before reading absorption at 420 nm and 550 nm using a Biotek Synergy 2 plate reader. Non-linear regression curve fits were generated using GraphPad Prism software (version 6) using variable slope (four parameter) dose–response analysis.

[6] = target: T1, SdiA; assay: Competition dose–response of OOHL (2) against antagonists in the S. Typhimurium SdiA reporter; type: cell-based; conditions: for inhibition profile in competition assay (in words): against OOHL (2)
Experimental: We also submitted compounds 11, R8, and F45 to competition-type assays in the S. Typhimurium SdiA reporter to further characterize their activity profiles. […] The results are shown in Figure 5 (EC50 and maximal activity values listed in Supporting Information File 3).
as §1

[7] = target: T2, S. Typhimurium SdiA; assay: E. coli JLD271-pJN105SE-pSC11SE SdiA reporter, agonism; type: cell-based
From the text: as §2, with “This reporter construct uses an arabinose inducible promoter to produce S. Typhimurium SdiA and the promoter region for srgE fused to lacZ to report SdiA activity.” left out, “In both reporter strains, signal was normalized to the difference between the positive control (10 μM OOHL) and the negative control (1% DMSO; no compound).” left out
E. coli SdiA reporter assay. […] A 50 μL aliquot of culture from each well was lysed in 200 μL of Z-buffer and 8 μL of chloroform, and a 100 μL aliquot of this lysate was incubated with 25 μL of 4 mg/mL ONPG for 20 min at 30 °C before reading absorption at 420 nm and 550 nm using a Biotek Synergy 2 plate reader. […]

[8] = 1 μM compound, average ± STD, change in activity from 10 nM 2 (OOHL)
[9] = maximal activation of the antagonists (partial agonism), Table 3
[10] = average ± STD, change in activity from 10 nM 2 (OOHL)

T2 sequence (O66040 entry or part of it): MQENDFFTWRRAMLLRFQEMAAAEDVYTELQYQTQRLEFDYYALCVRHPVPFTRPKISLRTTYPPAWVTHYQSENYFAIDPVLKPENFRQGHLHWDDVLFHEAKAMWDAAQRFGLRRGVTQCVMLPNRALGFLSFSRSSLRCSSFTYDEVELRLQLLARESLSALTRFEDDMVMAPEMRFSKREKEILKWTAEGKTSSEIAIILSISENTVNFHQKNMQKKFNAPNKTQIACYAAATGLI
T1 sequence (O66040 entry or part of it): as above

| Structure (SMILES) | EC50 [1] | Emax [4, 9] | inhibition at 1 µM [2, 8] | inhibition at 100 µM [2, 10] | IC50 ([2]; against 10 nM L-OOHL (EC90)) | inhibition (%) [5] | inhibition profile in competition assay (in words) [6] | EC50 ([6]; antagonist at 0.1 μM) | EC50 ([6]; antagonist at 1 μM) | EC50 ([6]; antagonist at 10 μM) | also measured |
| --- | --- | --- | --- | --- | --- | --- | --- | --- | --- | --- | --- |
| CCCC(=O)CC(=O)NC1CCOC1=O (racemic) [DL-OHHL (3-oxo-C6)] | 5 nM |  |  |  |  |  |  |  |  |  |  |
| CCCCCC(=O)CC(=O)NC1CCSC1=O (racemic) [DL-3-oxo-C8 thiolactone] | 1 nM |  |  |  |  |  |  |  |  |  |  |
| O=C1C=C(Br)C(=CBr)O1 [compound 21, reference compound] |  |  |  |  |  |  |  |  |  |  | Antagonism 1 μM Inhibition (%) [2, 8]: 29 ± 13%; cell growth [3]: --f |
| CCCCCCCCCCCOc1ccc(C(=O)N[C@H]2CCOC2=O)cc1 [R8] |  | 24% | 18 ± 5% | 67 ± 5% | 44000 nM and 44200 nM | fully inhibit SdiA activity | competitive SdiA inhibition | 1.57 nM | 1.51 nM | 2.52 nM | Emax [2]: > 100%; inhibition at 0.0015 µM [5]: 106%; EC50 ([6]; antagonist at 100 μM): 10.6 nM |
| CCCCCC(=O)CC(=O)NC1CCOC1=O (racemic) [DL-OOHL, N-(3-oxooctanoyl) DL-homoserine lactone] | 3 nM |  |  |  |  |  |  |  |  |  |  |
| CCCCCCCC(=O)NC1CCOC1=O (racemic) [DL-OHL (C8)] | 7 nM |  |  |  |  |  |  |  |  |  |  |
| CCOC(=O)CNC(=O)Cc1cccc(I)c1 [F45] |  | 26% | 8 ± 10% | 92 ± 2% | 28500 nM | failed to display antagonistic activity | non-competitive inhibition profile | 1.77 nM | 1.33 nM | 4.11 nM | Emax [2]: 87% |
| CCCCCC(=O)CC(=O)N[C@H]1CCOC1=O [compound 2, reference compound] |  |  | -2 ± 9% | 9 ± 5% |  |  |  |  |  |  | EC90 ([4]; S. Typhimurium reporter): 10 nM; EC50 ([4]; agonism dose–response, read-out: EC50): 1.03 nM; Emax ([4]; maximal activity (efficacy) from agonism dose–response, 10 μM OOHL = 100%, DMSO = 0%): 110%; EC50 ([6]; no antagonist (0)): 1.03 nM; EC50 [7]: 1.5 nM |
| O=C(CCCCCCCCCN=C=S)CC(=O)N[C@H]1CCOC1=O [compound 11, reference compound] |  | -33% | 64 ± 6% | 128 ± 1% | 320 nM | fully inhibit SdiA activity | both competitive and non-competitive inhibition | 72.3 nM | 220 nM | 1310 nM | IC50 ([2]; against 10 nM L-OOHL): 318 nM; IC50 [5]: 380 nM; inhibition at 0.0015 µM [5]: 130%; EC50 ([6]; antagonist at 100 μM): 4670 nM |
| CCCCCCCCCC(=O)NC1CCOC1=O (racemic) [DL-DHL (C10)] | 1000 nM |  |  |  |  |  |  |  |  |  |  |

From paper PMC6204753, “Non-native autoinducer analogs capable of modulating the SdiA quorum sensing receptor in Salmonella enterica serovar Typhimurium” (Beilstein Journal of Organic Chemistry, 2018)
